Test results taken from patent US20230081426A1, “COMPOUNDS AND METHODS FOR KRAS MODULATION AND INDICATIONS THEREFOR” (Plexxikon Inc., priority 2020, published 2023).

What follows are molecules tested against T1, G12D-mutant human KRAS (amino acid residues 1-188) (Homo sapiens, UniProt P01116, G12D) (assay: KRAS Binding Disruption Assay (AlphaScreen; biotinylated KRpep-2d analogue or RAF1-RBD), G12D). Details: KRAS G12D; geometric mean; read-out: KRAS GMean IC50 (uM) MUTATION: G12D.
T1 construct: G12D or G12C-mutant human KRAS (amino acid residues 1-188) with FLAG tag; made in house; host or cells: E. coli
Summary of the method: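 Mutant KRAS (5-20 nM) incubated 1 h at 25° C with test compound and 5-20 nM biotinylated KRpep-2d analogue or RAF1-RBD in 20 mM HEPES pH 7.5, 100 mM NaCl, 5 mM MgCl2, 0.01% Tween-20, 0.01% BSA.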

T1 sequence (P01116 1-188 isoform P01116-2 G12D): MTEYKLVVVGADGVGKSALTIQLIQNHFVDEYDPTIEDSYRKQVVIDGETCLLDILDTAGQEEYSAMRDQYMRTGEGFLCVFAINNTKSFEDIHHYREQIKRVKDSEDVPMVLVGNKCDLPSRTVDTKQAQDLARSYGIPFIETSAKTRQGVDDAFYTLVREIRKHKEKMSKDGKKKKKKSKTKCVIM

SMILES	IC50 [µM]
CN1CCC[C@H]1COc1nc(N2C[C@H]3CC[C@@H](C2)N3C(=O)c2n[nH]c(=O)[nH]2)c2ccc(-c3cc(O)cc4ccccc34)cc2n1 [P-0113, 5-((1R,5S)-3-(7-(3-hydroxynaphthalen-1-yl)-2-(((S)-1-methylpyrrolidin-2-yl)methoxy)quinazolin-4-yl)-3,8-diazabicyclo[3.2.1]octane-8-carbonyl)-2,4-dihydro-3H-1,2,4-triazol-3-one]	10 to 100
COCc1cccc2[nH]cc(-c3ccc4c(N5C[C@H]6CC[C@@H](C5)N6)nc(OCC56CCCN5CCC6)nc4c3F)c12 [P-0567, 4-((1R,5S)-3,8-diazabicyclo[3.2.1]octan-3-yl)-8-fluoro-7-(4-(methoxymethyl)-1H-indol-3-yl)-2-((tetrahydro-1H-pyrrolizin-7a(5H)-yl)methoxy)quinazoline]	0.0001 to 10
N#CCCc1cccc2[nH]cc(-c3ccc4c(N5C[C@H]6CC[C@@H](C5)N6)nc(OCC56CCCN5CCC6)nc4c3F)c12 [P-0519, 3-(3-(4-((1R,5S)-3,8-diazabicyclo[3.2.1]octan-3-yl)-8-fluoro-2-((tetrahydro-1H-pyrrolizin-7a(5H)-yl)methoxy)quinazolin-7-yl)-1H-indol-4-yl)propanenitrile]	0.0001 to 10
CN(C)CC1CN(c2nc(N3C[C@H]4CC[C@@H](C3)N4)c3ccc(-c4cc(O)cc5ccccc45)c(F)c3n2)C1 [P-0565, 4-(4-((1R,5S)-3,8-diazabicyclo[3.2.1]octan-3-yl)-2-(3-((dimethylamino)methyl)azetidin-1-yl)-8-fluoroquinazolin-7-yl)naphthalen-2-ol]	0.0001 to 10
Cc1c(-c2cc(O)cc3ccccc23)ccc2c(N3C[C@H]4CC[C@@H](C3)N4)nc(OC[C@@H]3CCCN3C)nc12 [P-0014, 4-(4-((1R,5S)-3,8-diazabicyclo[3.2.1]octan-3-yl)-8-methyl-2-(((S)-1-methylpyrrolidin-2-yl)methoxy)quinazolin-7-yl)naphthalen-2-ol]	0.0001 to 10
Cc1ccc2[nH]ncc2c1-c1c(Cl)cc2c(N3C[C@H]4CC[C@@H](C3)N4)nc(OCC34CCCN3CCC4)nc2c1F [P-0523, 4-((1R,5S)-3,8-diazabicyclo[3.2.1]octan-3-yl)-6-chloro-8-fluoro-7-(5-methyl-1H-indazol-4-yl)-2-((tetrahydro-1H-pyrrolizin-7a(5H)-yl)methoxy)quinazoline]	0.0001 to 10
CC(C)(CNS(C)(=O)=O)COc1nc(N2C[C@H]3CC[C@@H](C2)N3)c2ccc(-c3cc(O)cc4ccccc34)c(F)c2n1 [P-0590, N-(3-((4-((1R,5S)-3,8-diazabicyclo[3.2.1]octan-3-yl)-8-fluoro-7-(3-hydroxynaphthalen-1-yl)quinazolin-2-yl)oxy)-2,2-dimethylpropyl)methanesulfonamide]	0.0001 to 10
CN1CCC[C@H]1COc1nc(N2CC3COCC(C2)N3)c2cc(Cl)c(-c3cc(O)cc4ccccc34)c(F)c2n1 [P-0040, 4-(4-(3-oxa-7,9-diazabicyclo[3.3.1]nonan-7-yl)-6-chloro-8-fluoro-2-(((S)-1-methylpyrrolidin-2-yl)methoxy)quinazolin-7-yl)naphthalen-2-ol]	0.0001 to 10
Fc1c(-c2cncc3cccc(Cl)c23)ccc2c(N3C[C@H]4CC[C@@H](C3)N4)nc(OCC34CCCN3CCC4)nc12 [P-0572, 4-((1R,5S)-3,8-diazabicyclo[3.2.1]octan-3-yl)-7-(5-chloroisoquinolin-4-yl)-8-fluoro-2-((tetrahydro-1H-pyrrolizin-7a(5H)-yl)methoxy)quinazoline]	0.0001 to 10
Fc1c(-c2cccc3cccc(Cl)c23)ccc2c(N3C[C@H]4CC[C@@H](C3)N4)nc(OCC34CCCN3CCC4)nc12 [P-0570, 4-((1R,5S)-3,8-diazabicyclo[3.2.1]octan-3-yl)-7-(8-chloronaphthalen-1-yl)-8-fluoro-2-((tetrahydro-1H-pyrrolizin-7a(5H)-yl)methoxy)quinazoline]	0.0001 to 10
OCCC1CN(c2nc(N3C[C@H]4CC[C@@H](C3)N4)c3ccc(-c4cc(O)cc5ccccc45)c(F)c3n2)C1 [P-0564, 4-(4-((1R,5S)-3,8-diazabicyclo[3.2.1]octan-3-yl)-8-fluoro-2-(3-(2-hydroxyethyl)azetidin-1-yl)quinazolin-7-yl)naphthalen-2-ol]	0.0001 to 10
CO[C@@H]1CN(C)C[C@H]1Oc1nc(N2C[C@H]3CC[C@@H](C2)N3)c2cc(Cl)c(-c3cc(O)cc4ccccc34)c(F)c2n1 [P-0035, 4-(4-((1R,5S)-3,8-diazabicyclo[3.2.1]octan-3-yl)-6-chloro-8-fluoro-2-(((3R,4R)-4-methoxy-1-methylpyrrolidin-3-yl)oxy)quinazolin-7-yl)naphthalen-2-ol]	0.0001 to 10
Fc1cc(Cl)c2c(-c3ccc4c(N5C[C@H]6CC[C@@H](C5)N6)nc(OCC56CCCN5CCC6)nc4c3F)c[nH]c2c1 [P-0561, 4-((1R,5S)-3,8-diazabicyclo[3.2.1]octan-3-yl)-7-(4-chloro-6-fluoro-1H-indol-3-yl)-8-fluoro-2-((tetrahydro-1H-pyrrolizin-7a(5H)-yl)methoxy)quinazoline]	0.0001 to 10
CNC1CN(c2nc(N3C[C@H]4CC[C@@H](C3)N4)c3ccc(-c4cc(O)cc5ccccc45)c(F)c3n2)C1 [P-0601, 4-(4-((1R,5S)-3,8-diazabicyclo[3.2.1]octan-3-yl)-8-fluoro-2-(3-(methylamino)azetidin-1-yl)quinazolin-7-yl)naphthalen-2-ol]	0.0001 to 10
Oc1cc(-c2ccc3c(N4C[C@H]5CC[C@@H](C4)N5)nc(N4CC5(CCC(O)C5)C4)nc3c2F)c2ccccc2c1 (stereo partly drawn) [P-0563, 2-(4-((1R,5S)-3,8-diazabicyclo[3.2.1]octan-3-yl)-8-fluoro-7-(3-hydroxynaphthalen-1-yl)quinazolin-2-yl)-2-azaspiro[3.4]octan-6-ol]	0.0001 to 10
Cc1ccc2[nH]ncc2c1-c1c(F)cc2c(N3C[C@H]4CC[C@@H](C3)N4)nc(OCC34CCCN3CCC4)nc2c1F [P-0593, 4-((1R,5S)-3,8-diazabicyclo[3.2.1]octan-3-yl)-6,8-difluoro-7-(5-methyl-1H-indazol-4-yl)-2-((tetrahydro-1H-pyrrolizin-7a(5H)-yl)methoxy)quinazoline]	0.0001 to 10
C#Cc1cccc2[nH]cc(-c3ccc4c(N5C[C@H]6CC[C@@H](C5)N6)nc(OCC56CCCN5CCC6)nc4c3F)c12 [P-0513, 4-((1R,5S)-3,8-diazabicyclo[3.2.1]octan-3-yl)-7-(4-ethynyl-1H-indol-3-yl)-8-fluoro-2-((tetrahydro-1H-pyrrolizin-7a(5H)-yl)methoxy)quinazoline]	0.0001 to 10
NC1(CO)CN(c2nc(N3C[C@H]4CC[C@@H](C3)N4)c3ccc(-c4cc(O)cc5ccccc45)c(F)c3n2)C1 [P-0577, 4-(2-(3-amino-3-(hydroxymethyl)azetidin-1-yl)-4-((1R,5S)-3,8-diazabicyclo[3.2.1]octan-3-yl)-8-fluoroquinazolin-7-yl)naphthalen-2-ol]	0.0001 to 10
Oc1cc(-c2ccc3c(N4C[C@H]5CC[C@@H](C4)N5)nc(N4CC5(CCC5O)C4)nc3c2F)c2ccccc2c1 (stereo partly drawn) [P-0555, 2-(4-((1R,5S)-3,8-diazabicyclo[3.2.1]octan-3-yl)-8-fluoro-7-(3-hydroxynaphthalen-1-yl)quinazolin-2-yl)-2-azaspiro[3.3]heptan-5-ol]	0.0001 to 10

Next, values leading:

IC50 [µM]	SMILES
0.0001 to 10	CN(C)CC(CN)Oc1nc(N2C[C@H]3CC[C@@H](C2)N3)c2ccc(-c3cc(O)cc4ccccc34)cc2n1 (stereo partly drawn) [P-0074, 4-(2-((1-amino-3-(dimethylamino)propan-2-yl)oxy)-4-((1R,5S)-3,8-diazabicyclo[3.2.1]octan-3-yl)quinazolin-7-yl)naphthalen-2-ol]
0.0001 to 10	OCC1(CNc2nc(N3C[C@H]4CC[C@@H](C3)N4)c3ccc(-c4cc(O)cc5ccccc45)c(F)c3n2)CC1 [P-0582, 4-(4-((1R,5S)-3,8-diazabicyclo[3.2.1]octan-3-yl)-8-fluoro-2-(((1-(hydroxymethyl)cyclopropyl)methyl)amino)quinazolin-7-yl)naphthalen-2-ol]
0.0001 to 10	OCc1cccc2[nH]cc(-c3ccc4c(N5C[C@H]6CC[C@@H](C5)N6)nc(OCC56CCCN5CCC6)nc4c3F)c12 [P-0574, (3-(4-((1R,5S)-3,8-diazabicyclo[3.2.1]octan-3-yl)-8-fluoro-2-((tetrahydro-1H-pyrrolizin-7a(5H)-yl)methoxy)quinazolin-7-yl)-1H-indol-4-yl)methanol]
0.0001 to 10	CCNC1CCN(c2nc(N3C[C@H]4CC[C@@H](C3)N4)c3ccc(-c4cc(O)cc5ccccc45)c(F)c3n2)C1 (stereo partly drawn) [P-0531, 4-(4-((1R,5S)-3,8-diazabicyclo[3.2.1]octan-3-yl)-2-(3-(ethylamino)pyrrolidin-1-yl)-8-fluoroquinazolin-7-yl)naphthalen-2-ol]
0.0001 to 10	CC(C)(CO)COc1nc(N2C[C@H]3CC[C@@H](C2)N3)c2ccc(-c3cccc4cccc(Cl)c34)c(F)c2n1 [P-0541, 3-((4-((1R,5S)-3,8-diazabicyclo[3.2.1]octan-3-yl)-7-(8-chloronaphthalen-1-yl)-8-fluoroquinazolin-2-yl)oxy)-2,2-dimethylpropan-1-ol]
0.0001 to 10	CCc1cccc2[nH]cc(-c3ncc4c(N5C[C@H]6CC[C@@H](C5)N6)nc(OCC56CCCN5CCC6)nc4c3F)c12 [P-0549, 4-((1R,5S)-3,8-diazabicyclo[3.2.1]octan-3-yl)-7-(4-ethyl-1H-indol-3-yl)-8-fluoro-2-((tetrahydro-1H-pyrrolizin-7a(5H)-yl)methoxy)pyrido[4,3-d]pyrimidine]
0.0001 to 10	O=C(O)CCc1cccc2[nH]cc(-c3ccc4c(N5C[C@H]6CC[C@@H](C5)N6)nc(OCC56CCCN5CCC6)nc4c3F)c12 [P-0518, 3-(3-(4-((1R,5S)-3,8-diazabicyclo[3.2.1]octan-3-yl)-8-fluoro-2-((tetrahydro-1H-pyrrolizin-7a(5H)-yl)methoxy)quinazolin-7-yl)-1H-indol-4-yl)propanoic acid]
0.0001 to 10	CN(C)C(=O)CCOc1nc(N2C[C@H]3CC[C@@H](C2)N3)c2ccc(-c3cc(O)cc4ccccc34)cc2n1 [P-0071, 3-((4-((1R,5S)-3,8-diazabicyclo[3.2.1]octan-3-yl)-7-(3-hydroxynaphthalen-1-yl)quinazolin-2-yl)oxy)-N,N-dimethylpropanamide]
